The nature of series [1]: in vitro. The note with it: dog.
Experimental: One hundred microliters of 2.0 × 10^4 MDCK cells were seeded into the 96-well culture plates (flat bottom) and grown for 24 h at 37 °C in a 5% CO2 atmosphere, then, the extracts were added with a final concentration of 1 mg/mL in DMEM. […] The extracts were diluted in culture medium DMEM, the DMSO final concentration was equal to 1.0% (v/v). After 48 h of cells incubation with extracts or vehicle (DMSO), a freshly prepared XTT (Sigma) solution was added, as specified by the manufacturer’s instructions. […] The cell viability was calculated by the comparison between absorbance (A475 nm–A660 nm) from treated (A) and untreated (B) cells using the formula: A/B × 100. Tests were carried out performing three replicates (n = 3).
For series [2], the system named is A(H3N2)-WT (A/Switzerland/9715293/2013). The experiment in a line: microbe, parasite or virus in culture. Particulars: Influenza A virus, H3N2, MDCK, read-out: EC50 A(H3N2)-WT. It is filed as cell-based.
The subject of series [3] is A(H1N1)pdm09-WT (A/California/04/2009). The experiment in a line: microbe, parasite or virus in culture. Particulars: Influenza A virus, H1N1, MDCK, read-out: EC50 A(H1N1)pdm09-WT. The format is cell-based.
Series [4] deals with neuraminidase of B/Perth/211/2001 Yam (WT) (Influenza B virus, UniProt Q3S340). The experiment in a line: biochemical. The note with it: read-out: NA Activity (%).
neuraminidase of B/Perth/211/2001 Yam (WT), sequence (Q3S340 1-466): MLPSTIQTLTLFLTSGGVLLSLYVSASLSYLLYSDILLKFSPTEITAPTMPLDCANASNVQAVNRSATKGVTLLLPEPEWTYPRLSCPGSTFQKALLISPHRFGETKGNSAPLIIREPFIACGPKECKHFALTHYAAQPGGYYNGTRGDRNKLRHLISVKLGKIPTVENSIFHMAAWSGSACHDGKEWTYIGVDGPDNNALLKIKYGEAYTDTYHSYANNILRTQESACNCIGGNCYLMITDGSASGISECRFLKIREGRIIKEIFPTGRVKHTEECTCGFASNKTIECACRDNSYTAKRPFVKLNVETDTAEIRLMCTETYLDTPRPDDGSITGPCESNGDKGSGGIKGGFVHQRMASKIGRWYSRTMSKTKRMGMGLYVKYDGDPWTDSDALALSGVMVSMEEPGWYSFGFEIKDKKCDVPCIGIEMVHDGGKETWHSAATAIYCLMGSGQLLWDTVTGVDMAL

For the compound `CCC(CC)O[C@@H]1C=C(C(=O)O)C[C@H](N)[C@H]1NC(C)=O` [OST-car, Oseltamivir carboxylate], the CC50 at 48 h in series [1] was determined as 2.13 mM. The EC50 was 32 nM in series [2] and 12 nM in series [3].

Consider `CCOC(=O)C1=C[C@@H](OC(CC)CC)[C@H](NC(C)=O)[C@@H](N)C1` [Oseltamivir], for which, in series [4], the activity at 10 pM stood at 104%, the activity at 0.0001 µM was 118%, the activity at 0.001 µM amounted to 92% and the activity at 0.01 µM is 32%. Also, in series [4], the activity at 0.1 µM came out at 11% and the activity at 1 µM stood at 11%.

The values are drawn from article PMC6204821, “Inhibitory effect of microalgae and cyanobacteria extracts on influenza virus replication and neuraminidase activity” (PeerJ, 2018).
